Results reported in ChEMBL document CHEMBL1126356, “Structure-activity relationships of the pyridazinone series of 5-lipoxygenase inhibitors” (Bioorg Med Chem Lett, 1992).
Activity calls are given as the source filed them. The rule behind the calls is not given here.

molecular target: T1, Polyunsaturated fatty acid 5-lipoxygenase (Homo sapiens, UniProt P09917); test: Inhibitory Activity against 5-Lipoxygenase was determined; IA=Inactive at concentrations less than 32 uM
T1 sequence (P09917 whole entry): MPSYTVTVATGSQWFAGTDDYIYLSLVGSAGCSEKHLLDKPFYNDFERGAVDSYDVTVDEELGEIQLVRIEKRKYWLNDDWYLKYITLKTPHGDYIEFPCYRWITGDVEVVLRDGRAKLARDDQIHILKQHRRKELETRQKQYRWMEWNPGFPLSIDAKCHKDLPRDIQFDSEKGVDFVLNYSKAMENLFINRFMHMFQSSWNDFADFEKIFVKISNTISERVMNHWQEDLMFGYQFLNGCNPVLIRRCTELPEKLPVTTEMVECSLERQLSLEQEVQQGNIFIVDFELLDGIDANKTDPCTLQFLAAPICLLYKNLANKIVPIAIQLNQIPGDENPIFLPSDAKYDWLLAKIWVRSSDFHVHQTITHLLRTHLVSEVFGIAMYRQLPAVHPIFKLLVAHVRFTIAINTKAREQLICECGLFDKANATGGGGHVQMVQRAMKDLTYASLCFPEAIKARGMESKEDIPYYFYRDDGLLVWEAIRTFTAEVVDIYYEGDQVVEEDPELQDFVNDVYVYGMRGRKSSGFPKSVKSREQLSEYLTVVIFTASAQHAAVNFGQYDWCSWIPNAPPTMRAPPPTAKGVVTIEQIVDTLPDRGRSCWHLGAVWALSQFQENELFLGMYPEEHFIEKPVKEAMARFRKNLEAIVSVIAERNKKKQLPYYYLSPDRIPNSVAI

SMILES | IC50
O=C1CCCCN(c2ccccc2)N1 | Not Active

molecular target: T2, Polyunsaturated fatty acid 5-lipoxygenase (Homo sapiens) (UniProt P09917); test: Inhibitory Activity against 5-Lipoxygenase at concentration 32 uM was determined
T2 sequence (whole entry): T1 sequence (P09917 whole entry)

SMILES | inhibition
O=C1CCCCCN(c2ccccc2)N1 | 8%

molecular target: T1, Polyunsaturated fatty acid 5-lipoxygenase; test: Inhibitory Activity against 5-Lipoxygenase was determined; NA=No significant inhibitory activity up to 300 uM

SMILES | IC50
O=C1CCCN(c2cccc(C(=O)O)c2)N1 | Not Active

molecular target: T1, Polyunsaturated fatty acid 5-lipoxygenase; test: Inhibitory Activity against 5-Lipoxygenase was determined; IA=Inactive

SMILES | IC50
CCOC(=O)CCCCCN(N)c1ccccc1 | Not Active
CCOC(=O)CCCCN(N)c1ccccc1 | Not Active

molecular target: T2, Polyunsaturated fatty acid 5-lipoxygenase (Homo sapiens); test: In vitro inhibition of 5-Lipoxygenase; Inactive.

SMILES | Activity
O=C1CCCN(c2ccccc2)N1c1ccccc1 | inactive
O=C1CCCC(c2ccccc2)N1 (stereo unspecified) | inactive
O=C1CCCN(Cc2ccccc2)N1 | inactive
CC1=NN(c2ccccc2)C(=O)CC1 | inactive
CCCCCN1CCCC(=O)N1 | inactive
O=C1CCC(c2ccccc2)=NN1 | inactive
CN1C(=O)CCCN1c1ccccc1 | inactive
O=C1CCCN(c2ccccc2)C1 | inactive
c1ccc(N2CCCCN2)cc1 | inactive
CCC(=O)N1C(=O)CCCN1c1ccccc1 | inactive
O=C1CCC(c2ccccc2)NN1 (stereo unspecified) | inactive
O=C1CCCN(C2CCCCC2)N1 | inactive
CC1CCC(=O)N(c2ccccc2)N1 (stereo unspecified) | inactive
O=C1CCCNN1 | inactive
C1=NN(c2ccccc2)CCC1 | inactive
O=C1CCCN(c2ccccc2)N1C(=O)c1ccccc1 | inactive
O=C1CCCC(c2ccccc2)=N1 | inactive
O=C1CCCN(C(=O)c2ccccc2)N1 | inactive

molecular target: T2, Polyunsaturated fatty acid 5-lipoxygenase (Homo sapiens); test: Inhibitory Activity against 5-Lipoxygenase at 30 uM was determined; Weakly active

SMILES | inhibition
O=C1CCC(=O)N(c2ccccc2)N1 | 24%

system: Rattus norvegicus; test: Compound was tested for in vivo potency in the rat anaphylaxis assay; format: functional

SMILES | ED50
N#Cc1cccc(N2CCCC(=O)N2)c1 | 23 mg/kg

molecular target: T1, Polyunsaturated fatty acid 5-lipoxygenase; test: Inhibitory activity against 5-lipoxygenase.

SMILES | IC50
CCc1ccccc1N1CCCC(=O)N1 | 39 µM
O=C1CCN(c2cccc(Cl)c2)N1 | 0.73 µM
O=C1CCCN(c2ccc(Cl)cc2)N1 | 79 µM
CCc1cccc(N2CCCC(=O)N2)c1 | 3 µM
COc1cccc(N2CCCC(=O)N2)c1 | 6.7 µM
CCCC(=O)NNc1ccccc1 | 52 µM
Cc1ccccc1N1CCCC(=O)N1 | 57 µM
COc1ccc(N2CCCC(=O)N2)cc1 | 156 µM
CCCCCCCCN1CCCC(=O)N1 | 23 µM
O=C1CCN(c2ccc(Cl)cc2)N1 | 1.1 µM
CC(C)(C)C(=O)c1cccc(N2CCCC(=O)N2)c1 | 15 µM
N#Cc1cccc(N2CCCC(=O)N2)c1 | 9.3 µM
COc1ccccc1N1CCCC(=O)N1 | 204 µM
O=C1CCCN(c2cccc(Br)c2)N1 | 1.8 µM
O=C1CCCN(c2cccc(F)c2)N1 | 5.5 µM
Cc1cccc(N2CCC(=O)N2)c1 | 1.3 µM

SMILES | IC50
Cc1ccc(N2CCC(=O)N2)cc1 | 3.5 µM
O=C1CCCN(c2ccccc2Cl)N1 | 99 µM
O=C1CCCN(c2ccccc2)N1 | 3.8 µM
O=C1CCCN(c2cccc(C(F)(F)F)c2)N1 | 5.2 µM
CCOC(=O)c1cccc(N2CCCC(=O)N2)c1 | 5.6 µM
O=C1CCN(c2ccccc2Cl)N1 | 3.7 µM
O=C1CCCN(c2cccc(Cl)c2)N1 | 2.5 µM
CC(=O)c1cccc(N2CCCC(=O)N2)c1 | 19 µM
Cc1ccccc1N1CCC(=O)N1 | 8.2 µM
Cc1ccc(N2CCCC(=O)N2)cc1 | 277 µM
CCCCCCCCCCCCN1CCCC(=O)N1 | 6 µM
CCc1ccc(N2CCCC(=O)N2)cc1 | 125 µM
Cc1cccc(N2CCCC(=O)N2)c1 | 3.4 µM
CC(=O)NNc1ccccc1 | 65 µM
O=C1CCCN(c2cccc(CO)c2)N1 | 53 µM
